Measurements taken from patent US20160297761A1, “NOVEL INHIBITORS OF GLUTAMINASE” (RHIZEN PHARMACEUTICALS SA, priority 2014, published 2016).
Read-outs that look alike come from different tables or passages of the source.

Key:
cancer cell lines = experiment: In vitro cell proliferation assay in cancer cell lines (MTT dye reduction, 72 h); type: cell-based; conditions: cancer cell line not named, 10% FBS media
Procedure: Assay 4: In Vitro Cell Proliferation Assay in Cancer Cell Lines
Growth inhibition assays were carried out using 10% FBS supplemented media. Cells were seeded at a concentration of 5000-20,000 cells/well in a 96-well plate. Test compounds at a concentration range from 0.01 to 10000 nM were added after 24 hours. Growth was assessed using the 3-[4,5-dimethylthiazol-2-yl]-2,5-diphenyltetrazolium bromide (MIT) dye reduction test at 0 h (prior to the addition of the test compound) and 72 hours after the addition of test compound. Absorbance was read on a Fluostar Optima (BMG Labtech, Germany) at a wave length of 450 nm. Data were analysed using GraphPad Prism and percent inhibition due to the test compound compared to the control was calculated accordingly.

[1] = target: T1, L-glutaminase present in mice brain homogenate (Glutaminase(Brain)) (Mus musculus, UniProt D3Z7P3); experiment: Glutaminase enzyme activity using glutaminase enzyme from mice brain/kidney homogenate (Nessler's reagent, ammonia); type: biochemical; conditions: for inhibition at 0.1 µM: read-out: Glutaminase(Brain) activity % inhibition 0.1 μM; for inhibition at 1 µM: read-out: Glutaminase(Brain) activity % inhibition @1 μM
T1 sequence (D3Z7P3 55-674): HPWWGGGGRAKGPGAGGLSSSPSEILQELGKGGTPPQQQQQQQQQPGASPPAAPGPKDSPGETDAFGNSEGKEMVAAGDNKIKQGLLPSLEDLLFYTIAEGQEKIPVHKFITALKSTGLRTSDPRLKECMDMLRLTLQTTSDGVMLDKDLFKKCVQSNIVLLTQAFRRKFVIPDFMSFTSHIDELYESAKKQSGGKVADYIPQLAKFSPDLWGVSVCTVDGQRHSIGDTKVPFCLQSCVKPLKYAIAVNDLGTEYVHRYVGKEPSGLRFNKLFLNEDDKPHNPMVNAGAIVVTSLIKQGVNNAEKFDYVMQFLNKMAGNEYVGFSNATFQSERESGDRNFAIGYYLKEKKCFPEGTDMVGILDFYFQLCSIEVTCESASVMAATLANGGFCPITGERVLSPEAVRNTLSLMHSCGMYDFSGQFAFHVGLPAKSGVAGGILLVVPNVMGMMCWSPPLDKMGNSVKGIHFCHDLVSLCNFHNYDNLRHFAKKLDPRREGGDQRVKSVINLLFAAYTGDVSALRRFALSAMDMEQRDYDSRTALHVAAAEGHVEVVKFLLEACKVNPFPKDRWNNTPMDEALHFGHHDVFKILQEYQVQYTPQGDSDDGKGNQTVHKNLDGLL
Procedure: Assay 3: Determination of Glutaminase Enzyme Activity Using Glutaminase
Enzyme from Mice Brain/Kidney
Step 1: Preparation of Tissue Homogenates: Male Balb/c mice were administered 0.28 M ammonium chloride in drinking water for 7 days. The animals were sacrificed and brain/kidney organs collected on dry ice. […] The tissue was homogenized and supernatants were stored at −80° C. until the enzyme assay was performed.
Aim: Compounds were assessed for their ability to inhibit the enzymatic activity of L-glutaminase present in mice brain/kidney homogenate.
Protocol: The assay was performed using a colorimetric method using Nessler's Reagent by quantifying the amount of ammonia formed as a by product during the enzymatic conversion of L-glutamine to glutamate. In the routine assay, 16 μl of tissue homogenate is added to 33 μl of Tris-Hcl phosphate buffer (pH 8) along with 1 μl of DMSO/test compound containing the desired final concentration and vortexed briefly. 50 μl of 20 mM L-glutamine Tris buffer is added to start the reaction and incubated for 15 minutes at 37° C. The ammonia formed is detected by adding 20 μl of reaction mixture to cold water in a 96 well plate followed by 20 μl of Nessler's reagent. The colour developed is measured at 450 nm. Data Analysis: Activity of the test compound is reported as % inhibition and the data is analyzed using Graphpad Prism (Graphpad software; San Diego Calif.) for IC50 determination.

Row | Structure (SMILES) | GI50 (cancer cell lines) [µM] | melting point [°C] | inhibition at 0.1 µM ([1]; 0.1 μM, mice brain homogenate) [%] | inhibition at 1 µM ([1]; mice brain homogenate) [%] | inhibition at 0.1 µM [1] [%]
1 | O=C(Cc1ccccn1)Nc1ccc(CCCCc2nnc(NC(=O)Cc3cccc(OC(F)(F)F)c3)s2)cn1 [Example-8, 2-(Pyridin-2-yl)-N-(5-(4-(5-(2-(3-(trifluoromethoxy)phenyl)acetamido)-1,3,4-thiadiazol-2-yl)butyl)pyridin-2-yl)acetamide] | < 0.1 | 176 to 178 | 25 to 50 | 50 to 75 | 
2 | O=C(Cc1cccc(OC(F)(F)F)c1)Nc1ccc(CCCCc2nnc(NC(=O)Cc3cccnc3)s2)cn1 [Example-10, 2-(Pyridin-3-yl)-N-(5-(4-(6-(2-(3-(trifluoromethoxy)phenyl)acetamido)pyridin-3-yl)butyl)-1,3,4-thiadiazol-2-yl)acetamide] |  | 176 to 178 | 75 to 100 | 75 to 100 | 
3 | CC(Cl)C(=O)Nc1nnc(CCCCc2ccc(NC(=O)Cc3cccc(OC(F)(F)F)c3)nc2)s1 (stereo not drawn) [Example-23, 2-Chloro-N-(5-(4-(6-(2-(3-(trifluoromethoxy)phenyl)acetamido)pyridin-3-yl)butyl)-1,3,4-thiadiazol-2-yl)propanamide] | 5 to 10 | 132 to 134 | < 25 | < 25 | 
4 | O=C(Cc1cccc(OC(F)(F)F)c1)Nc1ccc(CCCCc2nnc(NC(=O)Cn3cccn3)s2)cn1 [Example-27, N-(5-(4-(5-(2-(1H-pyrazol-1-yl)acetamido)-1,3,4-thiadiazol-2-yl)butyl)pyridin-2-yl)-2-(3-(trifluoromethoxy)phenyl)acetamide] | 5 to 10 | 174 to 178 | < 25 | 50 to 75 | 
5 | Cc1ccc(F)c(C(=O)Nc2nnc(CCCCc3ccc(NC(=O)Cc4cccc(OC(F)(F)F)c4)nc3)s2)n1 [Example-37, 3-Fluoro-6-methyl-N-(5-(4-(6-(2-(3-(trifluoromethoxy)phenyl)acetamido)pyridin-3-yl)butyl)-1,3,4-thiadiazol-2-yl)picolinamide] |  | 130 to 133 | < 25 | < 25 | 
6 | O=C(Cc1cccc(OC(F)(F)F)c1)Nc1ccc(CCCCc2ccc(NC(=O)Cc3cccc(OC(F)(F)F)c3)nc2)cn1 [Example-40, N,N′-(5,5′-(Butane-1,4-diyl)bis(pyridine-5,2-diyl))bis(2-(3-(trifluoromethoxy)phenyl)acetamide)] |  | 153 to 155 | < 25 | < 25 | 
7 | O=C(Cc1ccccn1)Nc1nnc(CCCCc2ccc(NC(=O)Cc3cccc(OC(F)(F)F)c3)c(F)c2)s1 [Example-41, N-(5-(4-(3-Fluoro-4-(2-(3-(trifluoromethoxy)phenyl)acetamido)phenyl)butyl)-1,3,4-thiadiazol-2-yl)-2-(pyridin-2-yl)acetamide] |  | 164 to 168 | < 25 | < 25 | 
8 | O=C(Cc1cccnc1)Nc1nnc(CCCCc2ccc(NC(=O)Cc3cccc(OC(F)(F)F)c3)c(F)c2)s1 [Example-42, N-(5-(4-(3-Fluoro-4-(2-(3-(trifluoromethoxy)phenyl)acetamido)phenyl)butyl)-1,3,4-thiadiazol-2-yl)-2-(pyridin-3-yl)acetamide] |  | 176 to 180 | < 25 | < 25 | 
9 | O=C(Cc1cccnc1)Nc1nnc(C2CCC(c3nnc(NC(=O)Cc4cccnc4)s3)CC2)s1 (stereo not drawn) [Example-102, N,N′-(5,5′-(cyclohexane-1,4-diyl)bis(1,3,4-thiadiazole-5,2-diyl))bis(2-(pyridin-3-yl)acetamide)] |  | 180 to 182 |  |  | < 25

More lines, main results first:

Row | GI50 (cancer cell lines) [µM] | melting point [°C] | inhibition at 0.1 µM ([1]; 0.1 μM, mice brain homogenate) [%] | inhibition at 1 µM ([1]; mice brain homogenate) [%] | Structure (SMILES) | inhibition at 0.1 µM [1] [%]
10 | 1 to 5 | 135 to 137 | < 25 | 50 to 75 | O=C(Cc1ccncc1)Nc1ccc(CCCCc2nnc(NC(=O)Cc3cccc(OC(F)(F)F)c3)s2)cn1 [Example-22, 2-(Pyridin-4-yl)-N-(5-(4-(5-(2-(3-(trifluoromethoxy)phenyl)acetamido)-1,3,4-thiadiazol-2-yl)butyl)pyridin-2-yl)acetamide] | 
11 |  | 268 to 270 | 25 to 50 | 25 to 50 | O=C(Cc1cccnc1)Nc1nnc(CC2CCC(Cc3nnc(NC(=O)Cc4cccnc4)s3)CC2)s1 (stereo not drawn) [Example-103, N,N′-(5,5′-(cyclohexane-1,4-diylbis(methylene))bis(1,3,4-thiadiazole-5,2-diyl))bis(2-(pyridin-3-yl)acetamide)] | 
12 |  | 240 to 244 | < 25 | < 25 | O=C(Cc1cccc(OC(F)(F)F)c1)Nc1nnc(CC2CCC(Cc3nnc(NC(=O)Cc4cccc(OC(F)(F)F)c4)s3)CC2)s1 (stereo not drawn) [Example-104, N,N′-(5,5′-(cyclohexane-1,4-diylbis(methylene))bis(1,3,4-thiadiazole-5,2-diyl))bis(2-(3-(trifluoromethoxy)phenyl)acetamide)] | 
13 |  | 278 to 280 | < 25 | < 25 | O=C(Cc1cccc(OC(F)(F)F)c1)Nc1nnc(CC2CCC(Cc3nnc(NC(=O)Cc4ccccn4)s3)CC2)s1 (stereo not drawn) [Example-105, 2-(Pyridin-2-yl)-N-(5-((4-((5-(2-(3-(trifluoromethoxy)phenyl)acetamido)-1,3,4-thiadiazol-2-yl)methyl)cyclohexyl)methyl)-1,3,4-thiadiazol-2-yl)acetamide] | 
